One may read the GI50 as the concentration giving 50% growth inhibition. For orientation: IC50 means the concentration that gives 50% inhibition.

SMILES strings stand for the structures. Active and inactive are the calls of the source. No cut-off for these calls is given here. Where only a bound is given, the exact number is not on record here.

Consider 9 compounds from ChEMBL document CHEMBL4251579, “Design, synthesis, and biological evaluation of a series of resorcinol-based N-benzyl benzamide derivatives as potent Hsp90 inhibitors” (Eur J Med Chem, 2018).

The test system of one test is SK-BR-3. Description: Antiproliferative activity against human SKBR3 cells after 72 hrs by Cell Titer 96 Aqueous One Solution cell proliferation assay. It counts as functional.
Another test concerns NCI-H1975. Kind of test: Antiproliferative activity against human NCI-H1975 cells after 72 hrs by Cell Titer 96 Aqueous One Solution cell proliferation assay. It counts as functional. To be noted: NCI-H1975, 72 h.
In test [1] the target is Heat shock protein HSP 90-alpha (Homo sapiens, UniProt P07900). Description: Inhibition of FITC-geldanamycin binding to N-terminal domain of recombinant full-length HSP90alpha (unknown origin) after 16 hrs by fluorescence polarization assay.

For `COc1cc(CN(C)C(=O)c2cc(Cl)c(O)cc2O)c(Br)c(OC)c1OC`, the GI50 came out at 7.7 µM with SK-BR-3 (SK-BR-3, 72 h) and 34.3 µM with NCI-H1975.

Regarding `COC1=C2C[C@@H](C)C[C@H](OC)[C@H](O)[C@@H](C)/C=C(\C)[C@H](OC(N)=O)[C@@H](OC)/C=C\C=C(/C)C(=O)NC(=CC1=O)C2=O` [GELDANAMYCIN], the GI50 result in the test with SK-BR-3 is “inactive”. In the test on NCI-H1975, this compound came in with a GI50 of 0.56 µM.

Consider `COc1cc(CN(C)C(=O)c2cc(Cl)c(O)cc2O)cc(OC)c1OC`, for which the IC50 in test [1] is greater than 1 µM. The GI50 in the test with SK-BR-3 (SK-BR-3, 72 h) amounted to 30.1 µM; in the test with NCI-H1975, 73.1 µM.

For the compound `COc1ccc(CN(C)C(=O)c2cc(Cl)c(O)cc2O)cc1`, the GI50 in the test on SK-BR-3 (SK-BR-3, 72 h) was 7.2 µM; in the test on NCI-H1975 it was 16.7 µM.

As for `Cc1ccccc1CN(C)C(=O)c1cc(Cl)c(O)cc1O`, the GI50 in the test on SK-BR-3 (SK-BR-3, 72 h) was determined as 4.2 µM; in the test with NCI-H1975, 47.5 µM.

`CCNC(=O)c1ccc(CN(C)C(=O)c2cc(Cl)c(O)cc2O)cc1` came in with a 50% growth inhibitory concentration (GI50) in the test on NCI-H1975 of 21.7 µM.

Consider `COc1cc(CN(C)C(=O)c2cc(Cl)c(O)cc2O)c(Cl)c(OC)c1OC`, for which the GI50 came to 2.4 µM in the test on SK-BR-3 (SK-BR-3, 72 h) and 33.8 µM with NCI-H1975.

Take `COc1ccc(CN(C)C(=O)c2cc(Cl)c(O)cc2O)cc1OC`: the GI50 with SK-BR-3 (SK-BR-3, 72 h) turned out to be 7.7 µM; in the test with NCI-H1975, 33.4 µM.

`CN(Cc1ccccc1)C(=O)c1cc(Cl)c(O)cc1O`: the GI50 in the test with SK-BR-3 (SK-BR-3, 72 h) is 18.3 µM; with NCI-H1975 it was 35.5 µM.
